{"source": "patent US9290464B2", "about": "(priority 2010, dated 2016)", "key": {"[1]": {"tested_on": "MAO-B-deficient human neuroblastoma SH-SY5Y cells", "assay": "Reactive oxygen species (DCF-DA staining) in MPP+-treated cells", "assay_type": "cell-based", "conditions": "2 mM MPP+, 50 nM, 24 hours; FIGS. 19 and 20", "procedure": "In this embodiment, MAO-B-deficient human neuroblastoma SH-SY5Y cells (Korean Cell Line Bank) were used. The cells were cultured in a DMEM medium at 37° C. with 5% of CO2 for 24 hours. The cultured cells were divided into three groups, 2 mM of MPP^+ was added to each group, one of the three groups was treated with 50 nM of CBI, one of the other two groups was treated with 50 nM of rasagiline, and the three groups were further incubated with 5% of CO2 at 37° C. for 24 hours. The group with only MPP^+ added thereto was incubated under the same conditions as described above. Subsequently, the cells were stained with 2,7-dichlorofluorescein diacetate (DCF-DA), which is a fluorescence dye capable of detecting reactive oxygen species, and then observed using a confocal microscope (Nikon Co., Japan)."}, "MPTP-induced mouse [2]": {"tested_on": "MPTP-induced mouse", "assay": "Number of neurites and spines per neuron in MPTP-induced mouse (confocal microscopy)", "assay_type": "in vivo, C57BL/6 mice", "conditions": "1 mg/kg oral once a day for 10 days after MPTP", "procedure": "To observe whether or not the number of neurites and spines per neuron in the tissues was increased, a coronal slice with a thickness of 200 um containing striatum or substantia nigra was prepared using a vibratome. Each group of mice was sacrificed, and the brain was taken out of each group and then placed in a cold, highly-concentrated sucrose dissection buffer bubbled with carbogen (5% CO2 and 95% O2) (87 mM NaCl, 2.5 mM KCl, 1.25 mM NaH2PO4, 25 mM NaHCO3, 1 mM CaCl2, 3 mM MgCl2, 10 mM dextrose, and 75 mM sucrose). While the vibratome was performed, a slicing chamber was filled with the uniformly carbogenated sucrose dissection buffer. After the slicing process was terminated, all the slices were washed with PBS, and fixed with 4% paraformaldehyde in a PBS solution. The fixed brain slices were placed on a 1.5% agarose (in PBS) block. Images thereof were obtained using a confocal microscope (ZEISS LSM 510 META) by using Zeiss LSM image browser software (Carl Zeiss Microimaging, Germany, version 4.0 SP2)."}, "MPTP-induced mouse [3]": {"tested_on": "MPTP-induced mouse", "assay": "Concentration of dopamine in striatum of MPTP-induced mouse (HPLC)", "assay_type": "in vivo, C57BL/6 mice", "conditions": "1 mg/kg oral once a day, FIG. 4", "procedure": "7 days after the compounds described above are respectively administered to the three groups, the mice in each group were sacrificed by cervical dislocation and brain tissues were immediately taken out of the mice. Striatum was collected from the brain tissue, 0.5 ml of a HPLC assay diluent (0.1 M HClO4, 0.1 mM EDTA) was added to the striatum, and a tissue homogenate was then prepared using an ultrasonic processor. The homogenate was centrifuged at 12,000 rpm for 15 minutes, and the supernatant was filtered with a nitrocellulose filter (0.2 um, Millipore). For HPLC analysis, HR-80 column (80 mm×4.6 mm, particle size: 3 μm ESA, USA) was used, the flow rate of a mobile phase (0.07 M monobasic sodium phosphate, 1 mM sodium octasulfonic acid, 0.1 uM EDTA, 5% acetonitrile, pH 3.2) was maintained at 0.7 ml/min, and the electrode potential of an electrochemical detector (Coulochem III, ESA, USA) was at E1=−100 mV, E2=350 mV."}, "caspase 3": {"tested_on": "caspase 3", "assay": "Activity of caspase 3/7 (Apo-ONE) in MPP+-treated cells", "assay_type": "cell-based, human", "conditions": "2 mM MPP+, 24 hours; CBI 1, 5, 10 and 50 nM, rasagiline 50 nM; FIG. 18", "quoted_text": "SH-SY5Y cells were incubated in a 96-well plate at a concentration of 5×10^5 cells/well under the same conditions as described above, the cells were treated with 2 mM of MPP^+ and CBI (1, 5, 10 and 50 nM) or rasagiline (50 nM), and the resulting cells were incubated for 24 hours. Subsequently, 100 μl of Apo-ONE caspase 3/7 reagent (Promega, G7790) was added thereto and mixed therewith, and the resultant was further incubated for 4 hours. After the incubation was terminated, fluorescence was measured at an excitation wavelength of 495 nm and an emission wavelength of 521 nm by using a fluorescence plate reader (GeminiXPS, Molecular Devices)."}}, "data": [{"compound": "C#CCN[C@@H]1CCc2ccccc21", "note": "[rasagiline, R(+)-N-propargyl-1-aminoindan, reference compound]", "values": [{"measurement": "reactive oxygen species", "setting": "[1]", "result": "significantly decreased"}, {"measurement": "number of neurites", "setting": "MPTP-induced mouse [2]; FIG. 23", "result": "did not exhibit statistical significance"}, {"measurement": "number of spines", "setting": "MPTP-induced mouse [2]; FIG. 24", "result": "an increase in the number of spines was observed"}, {"measurement": "restoration of the concentration of dopamine in striatum compared with normal mice", "setting": "MPTP-induced mouse [3]", "result": "about 40%"}, {"measurement": "activity of caspase 3", "setting": "caspase 3", "result": "reduced"}]}]}
